Test results reported in patent US10077261B2, “Imidazolin-5-one derivative useful as FASN inhibitors for the treatment of cancer” (Janssen Pharmaceutica NV, priority 2012, dated 2018).

Columns and labels:
[1] = target: Fatty Acid Synthase Keto-reductase Domain (FASN KR) (Homo sapiens, UniProt P49327); test: Fatty Acid Synthase keto-reductase domain (FASN KR) inhibition, NADPH oxidation at 340 nm
Method: After 20 minutes incubation at room temperature the plate was measured again (T2).
The decrease in absorbance was calculated as (Absorbance before incubation T1)−(Absorbance following incubation T2).
A plot of Controlmin versus test compound concentration was fitted to a 4-parameter logistic curve using a non-linear least squares regression method.

[2] = system: A2780 ovarian cells; test: A2780 ovarian cell proliferation assay in lipid reduced medium, without palmitate (MTT); type: cell-based; conditions: Homo sapiens, A2780, 96 h; read-out: pIC50 A2780 Ovarian Cell, Without Palmitate (converted)
[3] = target: T1, hFASN enzyme (full length) (Homo sapiens, UniProt P49327); test: Fatty Acid Synthase (FASN) inhibition scintillation proximity assay; type: biochemical; conditions: for inhibition at 10 µM: read-out: Human FASN % inhibition @ 10 μM, 10 μM test compound; for IC50: read-out: Human FASN pIC50 (converted)
T1 construct: 10 μL hFASN enzyme (full length, 300 ng, purified in house); made in house
T1 sequence (P49327 whole entry): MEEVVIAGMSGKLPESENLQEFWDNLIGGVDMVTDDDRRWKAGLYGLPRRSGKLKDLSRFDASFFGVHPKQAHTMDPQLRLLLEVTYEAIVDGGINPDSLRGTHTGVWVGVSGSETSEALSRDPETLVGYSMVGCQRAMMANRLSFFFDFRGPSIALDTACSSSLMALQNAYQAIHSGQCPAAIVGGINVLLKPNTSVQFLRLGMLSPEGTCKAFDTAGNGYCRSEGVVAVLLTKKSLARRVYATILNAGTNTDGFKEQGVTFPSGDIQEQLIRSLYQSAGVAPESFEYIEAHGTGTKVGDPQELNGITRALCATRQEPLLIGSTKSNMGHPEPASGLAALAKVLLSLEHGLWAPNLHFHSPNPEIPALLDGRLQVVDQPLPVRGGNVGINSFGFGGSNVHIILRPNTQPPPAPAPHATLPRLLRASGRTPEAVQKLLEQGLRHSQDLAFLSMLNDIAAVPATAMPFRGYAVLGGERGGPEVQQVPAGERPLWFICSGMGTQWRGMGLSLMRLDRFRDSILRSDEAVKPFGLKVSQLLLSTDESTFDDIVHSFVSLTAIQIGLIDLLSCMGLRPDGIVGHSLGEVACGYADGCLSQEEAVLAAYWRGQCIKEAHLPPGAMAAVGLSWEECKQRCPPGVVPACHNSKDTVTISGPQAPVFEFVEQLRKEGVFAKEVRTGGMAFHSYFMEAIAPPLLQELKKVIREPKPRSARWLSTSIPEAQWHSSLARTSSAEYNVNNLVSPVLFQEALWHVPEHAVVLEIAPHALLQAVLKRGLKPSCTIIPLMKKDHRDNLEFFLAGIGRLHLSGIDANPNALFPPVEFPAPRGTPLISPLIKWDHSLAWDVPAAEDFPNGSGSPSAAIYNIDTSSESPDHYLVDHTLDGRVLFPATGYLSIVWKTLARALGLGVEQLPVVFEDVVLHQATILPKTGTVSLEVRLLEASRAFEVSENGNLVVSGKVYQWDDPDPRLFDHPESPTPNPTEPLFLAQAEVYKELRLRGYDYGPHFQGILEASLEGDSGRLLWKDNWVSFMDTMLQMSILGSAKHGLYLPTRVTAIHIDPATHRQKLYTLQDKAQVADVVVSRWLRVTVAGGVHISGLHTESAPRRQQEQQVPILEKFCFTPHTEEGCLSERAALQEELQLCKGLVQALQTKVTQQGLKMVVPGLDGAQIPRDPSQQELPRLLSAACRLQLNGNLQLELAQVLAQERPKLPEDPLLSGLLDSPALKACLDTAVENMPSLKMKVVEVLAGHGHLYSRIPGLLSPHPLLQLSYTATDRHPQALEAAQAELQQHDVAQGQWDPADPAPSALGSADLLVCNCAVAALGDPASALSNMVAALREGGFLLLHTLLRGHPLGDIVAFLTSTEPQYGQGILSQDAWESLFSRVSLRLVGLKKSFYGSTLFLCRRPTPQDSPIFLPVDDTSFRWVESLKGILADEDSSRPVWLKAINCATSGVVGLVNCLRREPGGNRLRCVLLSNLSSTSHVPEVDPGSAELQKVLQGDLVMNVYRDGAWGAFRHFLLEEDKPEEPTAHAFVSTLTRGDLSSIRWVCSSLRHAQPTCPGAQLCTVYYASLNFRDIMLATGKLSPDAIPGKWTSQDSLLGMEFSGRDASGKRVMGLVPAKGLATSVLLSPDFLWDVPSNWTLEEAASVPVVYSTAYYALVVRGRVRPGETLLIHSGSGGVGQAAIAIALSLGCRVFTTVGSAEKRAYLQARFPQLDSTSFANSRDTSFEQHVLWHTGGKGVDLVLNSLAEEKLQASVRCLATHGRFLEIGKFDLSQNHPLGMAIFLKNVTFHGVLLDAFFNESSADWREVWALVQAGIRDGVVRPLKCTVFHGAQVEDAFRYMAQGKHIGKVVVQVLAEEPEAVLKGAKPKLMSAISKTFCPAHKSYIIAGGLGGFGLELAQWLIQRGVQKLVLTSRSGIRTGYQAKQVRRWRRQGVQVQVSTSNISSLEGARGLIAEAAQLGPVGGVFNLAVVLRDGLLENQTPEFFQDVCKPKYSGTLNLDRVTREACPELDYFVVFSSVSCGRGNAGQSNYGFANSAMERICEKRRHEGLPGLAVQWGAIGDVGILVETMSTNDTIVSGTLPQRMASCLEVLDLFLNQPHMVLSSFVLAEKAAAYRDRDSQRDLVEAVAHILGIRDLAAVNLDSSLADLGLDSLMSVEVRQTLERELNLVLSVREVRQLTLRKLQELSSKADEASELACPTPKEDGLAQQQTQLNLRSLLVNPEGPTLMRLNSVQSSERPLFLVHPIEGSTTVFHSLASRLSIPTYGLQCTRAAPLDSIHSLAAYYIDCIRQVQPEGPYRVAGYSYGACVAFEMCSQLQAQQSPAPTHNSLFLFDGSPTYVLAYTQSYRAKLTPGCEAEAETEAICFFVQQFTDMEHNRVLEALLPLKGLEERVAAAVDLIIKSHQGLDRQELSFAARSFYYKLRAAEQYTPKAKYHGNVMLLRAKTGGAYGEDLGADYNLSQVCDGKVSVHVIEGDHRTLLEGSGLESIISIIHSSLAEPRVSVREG
Summary of the method: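 Compounds at 0.01–30 μM were mixed with 300 ng purified full-length enzyme in 100 mM KH2PO4 pH 7.5, 1 mM DTT. Substrates ³H-acetyl-CoA and malonyl-CoA were then converted, and bead addition stopped the reaction. Signal was normalised to low and high plate controls and fitted by 4-parameter nonlinear regression.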

[4] = system: PC-3M-Luc-C6 prostate cells; test: In vitro PC-3M-Luc-C6 prostate cell proliferation assay in lipid reduced medium; type: cell-based; conditions: 96 h, read-out: pIC50 PC-3M-Luc-C6 prostate cell (converted)
[5] = system: A2780 ovarian cells; test: A2780 ovarian cell proliferation assay in lipid reduced medium, with palmitate (MTT); type: cell-based; conditions: Homo sapiens, A2780, 96 h; read-out: pIC50 A2780 Ovarian Cell, With Palmitate (converted)
Summary of the method: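 Seeded cells were switched next day to lipid-reduced serum, exposed to compound and 25 μM palmitate complexed with fatty-acid-free BSA, and incubated 96 h. Proliferation was then determined by MTT absorbance at 544 nm, with a best-fit curve of signal against concentration.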

[6] = system: LNCaP-Vancouver prostate cells; test: In vitro LNCaP Vancouver prostate cell proliferation assay in lipid reduced medium; type: cell-based; conditions: read-out: pIC50 LNCaP_Vancouver prostate cell (converted)

Sequence of Fatty Acid Synthase Keto-reductase Domain (FASN KR) (P49327 whole entry, the tested form may be a part): as the sequence (P49327 whole entry) above

Compound	IC50 [1]	IC50 [2]	inhibition at 10 µM [3]	IC50 [3]	IC50 [4]	IC50 [5]	IC50 [6]
Cc1cc(-c2ccc(-c3cnn(C)c3)cc2)ccc1C1=NC2(CC2)C(=O)N1C[C@@H]1CCN(C(=O)C2(C)CC2)C1 [compound 267]	51.3 nM	1.7 nM	97%	26.3 nM	~3.09 nM	> 10000 nM	12.3 nM
O=C(C1CC1)N1CC[C@@H](CN2C(=O)C3(CC3)N=C2c2ccc(-c3cccc4ncccc34)cc2)C1 [compound 310, (R)-6-((1-(cyclopropanecarbonyl)pyrrolidin-3-yl)methyl)-5-(4-(quinolin-5-yl)phenyl)-4,6-diazaspiro[2.4]hept-4-en-7-one]	60.3 nM	589 nM	102%	39.8 nM	~324 nM	> 6170 nM	813 nM
O=C(C1CC1)N1CC(CN2C(=O)C3(CC3)N=C2c2ccc(-c3ccc4ccc(F)cc4c3)cc2F)C1 [compound 324, 6-((1-(cyclopropanecarbonyl)azetidin-3-yl)methyl)-5-(2-fluoro-4-(7-fluoronaphthalen-2-yl)phenyl)-4,6-diazaspiro[2.4]hept-4-en-7-one]	67.6 nM	19.5 nM	105%	32.4 nM	~30.2 nM	> 10000 nM	158 nM
O=C(C1CC1)N1CC(CN2C(=O)C3(CC3)N=C2c2ccc(-c3ccc4cc(Cl)ccc4c3)cc2F)C1 [compound 320, 5-(4-(6-chloronaphthalen-2-yl)-2-fluorophenyl)-6-((1-(cyclopropanecarbonyl)azetidin-3-yl)methyl)-4,6-diazaspiro[2.4]hept-4-en-7-one]	~26.9 nM	25.1 nM	102%	25.7 nM	50.1 nM	6460 nM	251 nM
O=C(Nc1cccc(-c2ccc(C3=NC4(CC4)C(=O)N3CC3CN(C(=O)C4CC4)C3)c(F)c2)c1)C1CC1 [compound 615, N-[4′-(6-{[1-(Cyclopropylcarbonyl)azetidin-3-yl]methyl}-7-oxo-4,6-diazaspiro[2.4]hept-4-en-5-yl)-3′-fluorobiphenyl-3-yl]cyclopropanecarboxamide]	1050 nM	501 nM	98%	324 nM	~2340 nM	> 10000 nM	3240 nM
Cc1cc(-c2ccc3c(cnn3C)c2)ccc1C1=NC2(CC2)C(=O)N1CC1CN(C(=O)C2(C)CCC2)C1 [compound 208, 5-(2-methyl-4-(1-methyl-1H-indazol-5-yl)phenyl)-6-((1-(1-methylcyclobutanecarbonyl)azetidin-3-yl)methyl)-4,6-diazaspiro[2.4]hept-4-en-7-one]	105 nM	~72.4 nM	99%	64.6 nM	43.7 nM	6030 nM	117 nM
Cc1cc(C2=NC3(CC3)C(=O)N2C[C@@H]2CCN(C(=O)C3CC3)C2)ccc1-c1ccc2[nH]ncc2c1 [compound 444, 6-{[(3R)-1-(Cyclopropylcarbonyl)pyrrolidin-3-yl]methyl}-5-[4-(1H-indazol-5-yl)-3-methylphenyl]-4,6-diazaspiro[2.4]hept-4-en-7-one]	562 nM	~209 nM	95%	251 nM	417 nM	> 10000 nM	1820 nM
Cc1ccnc2cc(-c3ccc(C4=NC5(CC5)C(=O)N4CC4CN(C(=O)C5CC5)C4)cc3)ccc12 [compound 554, 6-{[1-(Cyclopropylcarbonyl)azetidin-3-yl]methyl}-5-[4-(4-methylquinolin-7-yl)phenyl]-4,6-diazaspiro[2.4]hept-4-en-7-one]	269 nM	~145 nM	97%	129 nM	~174 nM	7760 nM	646 nM
O=C(C1CC1)N1CC[C@@H](CN2C(=O)C3(CC3)N=C2c2ccc(-c3ccc4sccc4c3)c(F)c2)C1 [compound 233, (R)-5-(4-(benzo[b]thiophen-5-yl)-3-fluorophenyl)-6-((1-(cyclopropanecarbonyl)pyrrolidin-3-yl)methyl)-4,6-diazaspiro[2.4]hept-4-en-7-one]	93.3 nM	912 nM	110%	50.1 nM	575 nM	> 10000 nM	1700 nM
Cc1cc(-c2ccc(-c3cnn(C)c3)cc2)ccc1C1=NC2(CC2)C(=O)N1CC1CN(C(=O)C2CC2)C1 [compound 333, 6-((1-(cyclopropanecarbonyl)azetidin-3-yl)methyl)-5-(3-methyl-4′-(1-methyl-1H-pyrazol-4-yl)-[1,1′-biphenyl]-4-yl)-4,6-diazaspiro[2.4]hept-4-en-7-one]	178 nM	~33.1 nM	98%	55 nM	~339 nM	> 10000 nM	537 nM
Cn1nc(CO)c2cc(-c3ccc(C4=NC5(CC5)C(=O)N4CC4CN(C(=O)C5CC5)C4)c(F)c3)ccc21 [compound 609, 6-{[1-(Cyclopropylcarbonyl)azetidin-3-yl]methyl}-5-{2-fluoro-4-[3-(hydroxymethyl)-1-methyl-1H-indazol-5-yl]phenyl}-4,6-diazaspiro[2.4]hept-4-en-7-one]	676 nM	~263 nM	99%	186 nM	661 nM	> 10000 nM	4790 nM
Cc1cc(-c2cccc(NS(=O)(=O)C3CC3)c2)ccc1C1=NC2(CC2)C(=O)N1CC1CN(C(=O)C2CC2)C1 [compound 578, N-[4′-(6-{[1-(Cyclopropylcarbonyl)azetidin-3-yl]methyl}-7-oxo-4,6-diazaspiro[2.4]hept-4-en-5-yl)-3′-methylbiphenyl-3-yl]cyclopropanesulfonamide]	1550 nM	331 nM	92%	646 nM	871 nM	> 10000 nM	5010 nM
O=C(C1CC1)N1CC(CN2C(=O)C3(CCOCC3)N=C2c2ccc(-c3ccc4cccnc4c3)cc2)C1 [compound 698, 3-{[1-(Cyclopropylcarbonyl)azetidin-3-yl]methyl}-2-(4-quinolin-7-ylphenyl)-8-oxa-1,3-diazaspiro[4.5]dec-1-en-4-one]	457 nM	380 nM	92%	251 nM	575 nM	> 10000 nM	2630 nM
Cn1cc(-c2ccc(-c3ccc(C4=NC5(CC5)C(=O)N4CC4CN(C(=O)C5CC5)C4)cc3)cc2)cn1 [compound 59, 6-{[1-(Cyclopropylcarbonyl)azetidin-3-yl]methyl}-5-[4′-(1-methyl-1H-pyrazol-4-yl)biphenyl-4-yl]-4,6-diazaspiro[2.4]hept-4-en-7-one]	132 nM	95.5 nM	98.7%	41.7 nM	100 nM	> 10000 nM	263 nM
Cn1cc(-c2ccc(-c3ccc(C4=NC5(CC5)C(=O)N4CC4CN(C(=O)C5CC5)C4)c(F)c3)cc2)cn1 [compound 322, 6-((1-(cyclopropanecarbonyl)azetidin-3-yl)methyl)-5-(3-fluoro-4′-(1-methyl-1H-pyrazol-4-yl)-[1,1′-biphenyl]-4-yl)-4,6-diazaspiro[2.4]hept-4-en-7-one]	79.4 nM	14.8 nM	102%	38 nM	~34.7 nM	> 10000 nM	151 nM
O=C(C1CC1)N1CC[C@@H](CN2C(=O)C3(CC3)N=C2c2ccc(-c3ccc4sccc4c3)cc2F)C1 [compound 241, (R)-5-(4-(benzo[b]thiophen-5-yl)-2-fluorophenyl)-6-((1-(cyclopropanecarbonyl)pyrrolidin-3-yl)methyl)-4,6-diazaspiro[2.4]hept-4-en-7-one]	28.8 nM	~75.9 nM	100%	21.9 nM	~56.2 nM	> 10000 nM	166 nM
